From patent US20260069581A1, “METHODS AND COMPOSITIONS FOR CANCER THERAPY” (OHIO STATE INNOVATION FOUNDATION, priority 2020, published 2026)

Experiments:
[1] = tested on: MOLM13 cells; assay: MTS cell viability of shRNA-stable or sgRNA-transfected MOLM13 cells treated with KPT-9274; type: cell-based, human; settings: MOLM13, 48-hour treatment
Protocol: FIGS. 7A-7B show representative data for knockdown of selected genes has modest effects on MOLM13 responses to KPT-9274 treatment. […] For the graphs in FIGS. 7A-7B, the responses of parental, shRNA-stable and sgRNA-transfected MOLM13 cells to KPT-9274 treatment (48-hour treatments) are plotted. Cell viability was measured with MTS (y-axis). Results are shown as mean±SEM of 4 technical replicates and 3 biological replicates. Western blotting for knockdown efficiency is shown.
MTS assay. For MTS assays, AML cell lines or patient-derived cells were treated in a 96-well plate at 1-6×10^5 cells per well for 24-72 hours. Patient-derived CD34^+ primary cells were cultured in 96-well plates coated with collagen in the presence of 10 ng/ml IL-3, 10 ng/ml IL-6, 10 ng/ml SCF and 10 ng/ml GM-CSF. Cells were treated with increasing concentrations of KPT-9274 (0 nM to 10 μM) or vehicle control (dimethyl sulfoxide [DMSO]). […] MTS [3-(4,5-dimethylthiazol-2-yl)-5-(3-carboxymethoxyphenyl)-2-(4-sulfophenyl)-2H-tetrazolium](Pro-mega, Madison, WI) was incubated with drug-treated cells according to the manufacturer's instructions. Plates were read by using a BioTek synergy H4 hybrid multimode microplate reader (Thermo Fisher Scientific) at 490 nM. […]

[2] = tested on: SIRT6-depleted cells; assay: Phospho-H2A.X staining in shSIRT6 cells with KPT-9274; type: cell-based; settings: SIRT6-depleted cells compared with scrambled control, in the presence of KPT-9274
Protocol: (§1) Thereafter, cells were fixed, permeabilized and stained with BV421 mouse anti-H2A.X (pS139) (Clone N1-431). Stained cells were analyzed by flow cytometry. Results are shown as mean±SEM of duplicates. *p<0.05. N.S.: not significant. […] Results are shown as mean±SEM of duplicates. *p<0.05. […] MOLM13 cells were treated with vehicle control, 0.4 μM or 0.8 μM AR-42 alone, 0.1 μM or 0.25 μM KPT-2974 alone and drug combination for 24 hours before being subject to Western blotting analysis of HR, NHEJ and ATM markers. GAPDH served as loading control. Results are representative of two independent experiments. In the FIG. the treatment concentrations, protein detected in the given Western blot, and molecular weight of the protein detected are as shown in the figure. […] Scrambled or shHDAC8-transduced MOLM13 cells were treated with vehicle, 0.1 μM or 0.25 μM KPT-2974 before being subject to immunoblotting analysis of DNA repair targets. GAPDH serves as loading control. Results are representative of two independent experiments. In the FIG. the treatment concentrations, protein detected in the given Western blot, and molecular weight of the protein detected are as shown in the figure. […] PAPR1 was immunoprecipitated and mono-ADP-ribosylation was detected by western blotting. […]
(§2) To elucidate the mechanism of the synergism between shSIRT6 and KPT-9274, the accumulation of phosph-H2A.X was measured. […]

[3] = tested on: MOLM13 and Kasumi-1 cell lines; assay: Annexin/PI flow cytometry apoptosis of shRNA-stable cells treated with KPT-9274; type: cell-based, human; settings: KPT-9274 at sublethal IC20 dose, 48 hour
Source text: FIGS. 2A-2M show show representative data for genetic depletion of HDAC8 or SIRT6 increases vulnerability of AML cell lines to KPT-9274 treatment. FIGS. 2A-2D show data for knockout efficiency of CDS- and 3′UTR-targeting shRNAs in MOLM13 and Kasumi-1 cells as assessed with Western blotting (FIGS. 2A, 2D) with GAPDH as a loading control. Densitometric quantification of protein band intensity is shown (n=2) in FIGS. 2B, 2E. FIGS. 2E-2H show representative data for depletion of HDAC8 or SIRT6 (as indicated in graphs) and sensitization of AML cell lines to KPT-9274 treatment. Dose-response curves of shRNA-stable MOLM13 and Kasumi-1 cells for 24-hour and 48-hour treatments are plotted. Cell viability was measured with MTS. […] Scrambled or gene-targeting shRNA-stable MOLM13 or Kasumi-1 cells were treated with IC20 dose of KPT-9274 for 48 hour and stained with Annexin/PI for flow cytometry analysis. Data are shown as mean±SEM of % population from duplicates. FIGS. 2K-2L show representative data that KPT-9274 attenuates AML self-renewal and induces myeloid differentiation in HDAC8 or SIRT6-depleted cells. Quantification of the number of colonies formed by shRNA-stable Kasumi-1 and MOLM13 cells in the presence or absence of KPT-9274 in CFU assays. Indicated number of cells were seeded into Methocult and colonies were counted and replated by a double-blind approach after 7 days. […]

[4] = tested on: PARP1; assay: co-IP and western blotting of PARP1 mono-ADP-ribosylation; type: cell-based; settings: eradicated by knockdown of SIRT6
Protocol: as §1, §2

[5] = in vivo; cited from earlier work

Structure (SMILES)	synergy of knockdown of IMPA2, HEXA, PTGS1 and DCPS with KPT-9274 treatment ([1]; MTS (FIG. 7A))	impact of depletion of HDAC1, HDAC3 or HDAC6 with CRISPR on KPT-9274 sensitivity ([1]; MTS (FIG. 7B))	DNA damage, phospho-H2A.X staining [2]	percentage of apoptotic cells ([3]; HDAC8 depletion)	apoptosis of AML cells ([3]; SIRT6 depletion)	mono-ADP-ribosylation of PARP1 [4]	tolerability of dose [5]
Nc1ccc(/C=C/C(=O)NCc2cc3cc(-c4ccc(C(=O)N5CCC(F)(F)CC5)cc4)cc(-c4ccc(F)cc4)c3o2)cn1 [KPT-9274, (E)-3-(6-aminopyridin-3-yl)-N-[[5-[4-(4,4-difluoropiperidine-1-carbonyl)phenyl]-7-(4-fluorophenyl)-1-benzofuran-2-yl]methyl]prop-2-enamide]	did not demonstrate strong synergies	did not have significant impact	increased phospho-H2A.X staining	significantly increase	enhance apoptosis	enhanced	–
CC(C)[C@H](C(=O)Nc1ccc(C(=O)NO)cc1)c1ccccc1 [AR-42, (S)—N-Hydroxy-4-(3-methyl-2-phenylbutanamido)benzamide]	–	–	–	–	–	–	tolerated
